Measurements taken from ChEMBL document CHEMBL1201862, “PubChem BioAssay data set” (2004).
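Tested at 5 concentrations; 48 h exposure; 96-well plates; endpoints linearly interpolated, else capped at highest concentration. Here, GI50 denotes the concentration required for 50% inhibition of growth.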 Calls of active or inactive are those of the source. Rule as the data show it: active = GI50 up to about 1.1 µM and inactive = higher.

How the values were obtained:
Assay in all cases: inhibition of tumour cell growth, NCI panel, 48 h
786-0 = test system: 786-0
A498 = test system: A498
A549 = test system: A549
ACHN = test system: ACHN
CAKI-1 = test system: CAKI-1
CCRF-CEM = test system: CCRF-CEM
COLO 205 = test system: COLO 205
DLD-1 = test system: DLD-1
DMS-114 = test system: DMS-114
DMS-273 = test system: DMS-273
EKVX = test system: EKVX
HCC 2998 = test system: HCC 2998
HCT-116 = test system: HCT-116
HCT-15 = test system: HCT-15
HOP-62 = test system: HOP-62
HOP-92 = test system: HOP-92
HT-29 = test system: HT-29
IGROV-1 = test system: IGROV-1
K562 = test system: K562
KM-20L2 = test system: KM-20L2
KM12 = test system: KM12
LOX IMVI = test system: LOX IMVI
LXFL 529 = test system: LXFL 529
M14 = test system: M14
M19-MEL = test system: M19-MEL
MOLT-4 = test system: MOLT-4
Malme-3M = test system: Malme-3M
NCI-H226 = test system: NCI-H226
NCI-H23 = test system: NCI-H23
NCI-H460 = test system: NCI-H460
NCI-H522 = test system: NCI-H522
OVCAR-3 = test system: OVCAR-3
OVCAR-4 = test system: OVCAR-4
OVCAR-5 = test system: OVCAR-5
OVCAR-8 = test system: OVCAR-8
RPMI-8226 = test system: RPMI-8226
RXF 393 = test system: RXF 393
RXF 631 = test system: RXF 631
SF-268 = test system: SF-268
SF-295 = test system: SF-295
SF-539 = test system: SF-539
SK-MEL-28 = test system: SK-MEL-28
SK-MEL-2 = test system: SK-MEL-2
SK-MEL-5 = test system: SK-MEL-5
SK-OV-3 = test system: SK-OV-3
SN12C = test system: SN12C
SNB-19 = test system: SNB-19
SNB-75 = test system: SNB-75
SNB-78 = test system: SNB-78
SW-620 = test system: SW-620
TK-10 = test system: TK-10
U-251 = test system: U-251
UACC-257 = test system: UACC-257
UACC-62 = test system: UACC-62
UO-31 = test system: UO-31
XF498 = test system: XF498
HL-60 = test system: HL-60

Compound: O=c1[nH]nc2c3n[nH]c(=O)n3c3ccccc3n12
- GI50 (786-0): > 100 µM (inactive)
- GI50 (A498): 47.1 µM (inactive)
- GI50 (A549): > 100 µM (inactive)
- GI50 (ACHN): > 100 µM (inactive)
- GI50 (CAKI-1): > 100 µM (inactive)
- GI50 (CCRF-CEM): > 100 µM (inactive)
- GI50 (COLO 205): > 100 µM (inactive)
- GI50 (DLD-1): > 100 µM (inactive)
- GI50 (DMS-114): > 100 µM (inactive)
- GI50 (DMS-273): > 100 µM (inactive)
- GI50 (EKVX): 93.8 µM (inactive)
- GI50 (HCC 2998): > 100 µM (inactive)
- GI50 (HCT-116): > 100 µM (inactive)
- GI50 (HCT-15): > 100 µM
- GI50 (HOP-62): > 100 µM (inactive)
- GI50 (HOP-92): 63.7 µM (inactive)
- GI50 (HT-29): > 100 µM (inactive)
- GI50 (IGROV-1): > 100 µM (inactive)
- GI50 (K562): > 100 µM (inactive)
- GI50 (KM-20L2): > 100 µM (inactive)
- GI50 (KM12): > 100 µM (inactive)
- GI50 (LOX IMVI): > 100 µM (inactive)
- GI50 (LXFL 529): > 100 µM (inactive)
- GI50 (M14): > 100 µM (inactive)
- GI50 (M19-MEL): > 100 µM (inactive)
- GI50 (MOLT-4): > 100 µM (inactive)
- GI50 (Malme-3M): > 100 µM (inactive)
- GI50 (NCI-H226): 50.1 µM (inactive)
- GI50 (NCI-H23): > 100 µM (inactive)
- GI50 (NCI-H460): > 100 µM (inactive)
- GI50 (NCI-H522): 66.1 µM (inactive)
- GI50 (OVCAR-3): > 100 µM (inactive)
- GI50 (OVCAR-4): > 100 µM (inactive)
- GI50 (OVCAR-5): > 100 µM (inactive)
- GI50 (OVCAR-8): > 100 µM (inactive)
- GI50 (RPMI-8226): > 100 µM (inactive)
- GI50 (RXF 393): > 100 µM (inactive)
- GI50 (RXF 631): > 100 µM (inactive)
- GI50 (SF-268): > 100 µM (inactive)
- GI50 (SF-295): > 100 µM (inactive)
- GI50 (SF-539): 69.8 µM (inactive)
- GI50 (SK-MEL-28): > 100 µM (inactive)
- GI50 (SK-MEL-2): > 100 µM (inactive)
- GI50 (SK-MEL-5): > 100 µM (inactive)
- GI50 (SK-OV-3): > 100 µM (inactive)
- GI50 (SN12C): > 100 µM (inactive)
- GI50 (SNB-19): > 100 µM (inactive)
- GI50 (SNB-75): 57.5 µM (inactive)
- GI50 (SNB-78): > 100 µM (inactive)
- GI50 (SW-620): > 100 µM (inactive)
- GI50 (TK-10): > 100 µM (inactive)
- GI50 (U-251): > 100 µM (inactive)
- GI50 (UACC-257): > 100 µM (inactive)
- GI50 (UACC-62): > 100 µM (inactive)
- GI50 (UO-31): 49.3 µM (inactive)
- GI50 (XF498): > 100 µM (inactive)

Compound: COC(=O)N/N=C(\C)CC(=O)Nc1ccc(Cl)cc1
- GI50 (786-0): > 100 µM (inactive)
- GI50 (A498): > 100 µM (inactive)
- GI50 (A549): > 100 µM (inactive)
- GI50 (CCRF-CEM): > 100 µM (inactive)
- GI50 (COLO 205): > 100 µM (inactive)
- GI50 (DLD-1): > 100 µM (inactive)
- GI50 (DMS-114): > 100 µM (inactive)
- GI50 (EKVX): 46.7 µM (inactive)
- GI50 (HCC 2998): > 100 µM (inactive)
- GI50 (HCT-116): > 100 µM (inactive)
- GI50 (HL-60): > 100 µM (inactive)
- GI50 (HOP-62): > 100 µM (inactive)
- GI50 (HOP-92): > 100 µM (inactive)
- GI50 (HT-29): > 100 µM (inactive)
- GI50 (IGROV-1): > 100 µM (inactive)
- GI50 (K562): > 100 µM (inactive)
- GI50 (KM-20L2): > 100 µM (inactive)
- GI50 (KM12): > 100 µM (inactive)
- GI50 (LOX IMVI): > 100 µM (inactive)
- GI50 (LXFL 529): > 100 µM (inactive)
- GI50 (M14): > 100 µM (inactive)
- GI50 (M19-MEL): > 100 µM (inactive)
- GI50 (MOLT-4): > 100 µM (inactive)
- GI50 (Malme-3M): > 100 µM (inactive)
- GI50 (NCI-H226): > 100 µM (inactive)
- GI50 (NCI-H23): > 100 µM (inactive)
- GI50 (NCI-H460): > 100 µM (inactive)
- GI50 (NCI-H522): 58.5 µM (inactive)
- GI50 (OVCAR-3): > 100 µM (inactive)
- GI50 (OVCAR-5): > 100 µM (inactive)
- GI50 (OVCAR-8): > 100 µM (inactive)
- GI50 (RPMI-8226): > 100 µM (inactive)
- GI50 (RXF 393): 42.6 µM (inactive)
- GI50 (RXF 631): > 100 µM (inactive)
- GI50 (SF-268): > 100 µM (inactive)
- GI50 (SF-295): > 100 µM (inactive)
- GI50 (SF-539): > 100 µM (inactive)
- GI50 (SK-MEL-28): > 100 µM (inactive)
- GI50 (SK-MEL-2): > 100 µM (inactive)
- GI50 (SK-MEL-5): > 100 µM (inactive)
- GI50 (SK-OV-3): > 100 µM (inactive)
- GI50 (SNB-75): 98.6 µM (inactive)
- GI50 (SNB-78): > 100 µM (inactive)
- GI50 (SW-620): > 100 µM (inactive)
- GI50 (TK-10): > 100 µM (inactive)
- GI50 (U-251): > 100 µM (inactive)
- GI50 (UACC-257): > 100 µM (inactive)
- GI50 (UACC-62): > 100 µM (inactive)
- GI50 (UO-31): 67.3 µM (inactive)
- GI50 (XF498): > 100 µM (inactive)
